Laboratory results: patent US6991812B2, “Agent for preventing, improving or treating hypertension” (Kao Corporation, priority 2000, dated 2006)

Tested on: male spontaneous hypertensive rats (SHR)
Experiment: Immediate effect on blood pressure in SHR, 1 hour after oral administration, tail artery systolic blood pressure
Assay type: in vivo, rat
Conditions: Example 6, organic acid, SHR aged 15 weeks, mean ± standard error
Procedure: The blood pressure of each of male spontaneous hypertensive rats (SHR) was preliminarily continuously measured for 7 days by means of a commercially available non-invasive sphygmomanometer (manufactured by Softlon Co.), thereby fully accustoming the rats to the sphygmomanometry, and an evaluation test was then started. All the rats were bred (in a breeding chamber in a rat zone) under conditions of a temperature of 25±1° C., a relative humidity of 55±10% and a lighting time of 12 hours (from 7 a.m. to 7 p.m.).
The thus-obtained test results were expressed by a mean and standard error to conduct a Student's t-test. A level of significance was defined as at most 5%.
Six rats aged 15 weeks at the time the administration test was started were used in each group. The systolic blood pressure of a tail artery of each rat was measured after 1 hour from the beginning of the administration.
In Control Group, water was orally administered. In Comparative Group 1, a 0.2% aqueous solution of ferulic acid was orally administered. […]
Six rats aged 15 weeks at the time the administration test was started were used in each group. The systolic blood pressure of a tail artery of each rat was measured after 1 hour from the beginning of oral administration. […]
In Control Group, a 1% aqueous solution of sugar was orally administered. […] The dose was determined to be 15 mL/kg.

With `COc1cc(/C=C/C(=O)O)ccc1O` [Comp. Group 2, ferulic acid] the “Systolic blood pressures, Before administration” value (n=6, baseline) was 208.0 ± 4.1 mmHg and the “Systolic blood pressures, After 1 hour from administration” value (n=6, oral aqueous solution) was 179.7 ± 4.4 mmHg.
